Tests used:
Nurr1 [1] = target: T1, Nurr1 (Homo sapiens, UniProt P43354); settings: high throughput screening of >340,000 compounds; cited from earlier work
Nurr1-LBD [2] = target: T2, Nurr1-LBD (Homo sapiens, UniProt P43354); assay: Top-down mass spectrometry of covalent coupling to Nurr1-LBD; format: binding; settings: overnight incubation at 1:1.5 molar ratio
T2 construct: The human Nurr1-LBD construct coding for residues 328-598 (hNurr1-LBD) was cloned into pETSUMO expression vector; SUMO tag (pETSUMO vector, purified on Ni2+-NTA) (cleaved yes); made in house; host or cells: E. coli BL21 (DE3)
T2 sequence (P43354 328-598): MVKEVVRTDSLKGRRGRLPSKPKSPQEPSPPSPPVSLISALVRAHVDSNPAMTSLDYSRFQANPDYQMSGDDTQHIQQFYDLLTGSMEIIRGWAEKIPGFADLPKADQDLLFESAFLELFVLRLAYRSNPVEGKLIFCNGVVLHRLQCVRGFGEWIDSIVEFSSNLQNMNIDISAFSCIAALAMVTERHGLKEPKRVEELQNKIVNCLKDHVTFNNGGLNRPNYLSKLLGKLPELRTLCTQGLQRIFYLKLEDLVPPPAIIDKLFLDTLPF
Protocol: Nurr1-LBD at ˜300 μM prepared in 0.1% FA in water was analyzed using a Dionex UltiMate 3000 UHPLC coupled to a linear quadrupole ion trap-Fourier transform Ultra apparatus (LTQ-FT Ultra, Thermo Scientific Inc.). Protein solution (5 μL) was injected directly into the detector carried by 0.1% FA in water at 500 μL/min. On-line ionization was performed using a Michrom CaptiveSpray ion source (Bruker-Michrom Inc., Auburn, USA) at an electrospray potential of 1.5 kV and capillary temperature of 200° C. Data acquisition was conducted in profile and positive mode (600-1600 m/z range). Mass spectrometry (MS) data was acquired for 60 min in the FT-ICR cell at a resolution of 100,000 (at 400 m/z) and maximum injection time of 500 msec using Xcalibur version 2.0 SR2 (Thermo Scientific Inc., Bremen, Germany). The automatic gain control target for FT-ICR was set to 5.0e+05. For each scan 100 microscans were averaged. […]
To exclude the possibility that the covalent coupling of PGA1/PGA2 to human Nurr1-LBD domain seen in the crystal structures was an artifact of crystallization or exposure to high-intensity X-rays, Nurr1-LBD at ˜ 300 μM prepared in 0.1% FA in water was analyzed using a Dionex UltiMate 3000 UHPLC coupled to a linear quadrupole ion trap-Fourier transform Ultra apparatus (LTQ-FT Ultra, Thermo Scientific Inc.). […]

Nurr1-LBD [3] = target: T2, Nurr1-LBD; assay: 2D 1H-15N HSQC NMR chemical shift perturbation on Nurr1-LBD; format: binding; settings: 15N-labeled Nurr1-LBD, 1:10 molar ratio protein:ligand; residues in helix 11 and 12 perturbed
Protocol: 0.2 mM uniformly ^15-N labeled Nurr1-LBD protein was prepared in 20 mM sodium phosphate buffer containing 50 mM NaCl, 0.01% NaN3 (pH 7.5) in 90% H2O/10% D2O. The interaction between Nurr1-LBD and PGA1/PGA2 (in DMSO vehicle) was examined using two dimensional HSQC comparing free protein sample with 1:10 molar ratio of Nurr1-LBD:PGA1/PGA2. The backbone resonance and sequence specific resonance assignments were previously assigned for Nurr1-LBD as reported (Kim, et. al. Proc Nat Acad Sci 112, 8756-8761 (2015)). The binding sites of PGA1/PGA2 were mapped on the crystal structure of Nurr1-LBD (PDB code: 1OVL) after determining the chemical shift perturbations following the addition of PGA1/PGA2 against the spectrum of the free protein. Bruker Avance II 700 MHz spectrometer fitted with a 5 mm triple resonance, z-axis-gradient cryoprobe at 298K was used for all NMR experiments. All spectra were processed directly to SPARKY format in UNIX and analyzed using the SPARKY 3.114 program (Goddard and Kneller, SPARKY In, 3.114 Edition: Univ of Calif (2002)).
Prostaglandins are a family of biologically potent lipids from membrane phospholipids; comprised of a C20-unsaturated fatty acid containing a cyclopentenone ring. […]

HL60 cells = settings: direct interaction with mitochondria; cited from earlier work
LRRK2 G2019S Drosophila = assay: Climbing assay and survival in LRRK2 G2019S Drosophila; format: in vivo, Drosophila melanogaster
Protocol: FIG. 4. Mitigation of locomotor deficits and mortality in LRRK2 G2019S Drosophila by CyPGs. Drosophila melanogaster expressing LRRK2 G2019S mutation driven by ddc-Gal4 result in late-onset PD in these flies. Treatment with 50 μM PGA2 was able to improve their climbing ability from 9.7% to 36.4% when compared to age-matched mutant flies (0.5% EtOH drug vehicle). Survival rate was determined by counting the number of flies that survived every 2-3 days for 55 days post-eclosion. Flies were treated with cornmeal-agar medium containing 50 μM PGA2 for 25 days at day 30 post-eclosion and climbing assay was carried out on day 55. The number of flies that climbed beyond a median line in a vertical column (length 25 cm; diameter 1.5 cm) were counted after one minute for an average of six times. Results represent mean±SEM of climbing scores from three independent experiments. Student's t-test (unpaired) was conducted to determine statistical significance between G2019S (vehicle treated) and PGA2-treated mutant flies: *p<0.05.
Flies expressing Leucine-rich repeat kinase 2 (LRRK2) with G2019S mutation driven by dopa decarboxylase (ddc)-Gal4 leads to late-onset PD in these flies (Liu, et al. Proc Natl Acad Sci USA 105, 2693-2698, doi:10.1073/pnas.0708452105 (2008)). […]

Nurr1 [4] = target: T1, Nurr1; settings: binding with Nurr1-LBD at its non-canonical ligand-binding site; cited from earlier work

T1 sequence (P43354 whole entry, species assumed, the tested form may be a part): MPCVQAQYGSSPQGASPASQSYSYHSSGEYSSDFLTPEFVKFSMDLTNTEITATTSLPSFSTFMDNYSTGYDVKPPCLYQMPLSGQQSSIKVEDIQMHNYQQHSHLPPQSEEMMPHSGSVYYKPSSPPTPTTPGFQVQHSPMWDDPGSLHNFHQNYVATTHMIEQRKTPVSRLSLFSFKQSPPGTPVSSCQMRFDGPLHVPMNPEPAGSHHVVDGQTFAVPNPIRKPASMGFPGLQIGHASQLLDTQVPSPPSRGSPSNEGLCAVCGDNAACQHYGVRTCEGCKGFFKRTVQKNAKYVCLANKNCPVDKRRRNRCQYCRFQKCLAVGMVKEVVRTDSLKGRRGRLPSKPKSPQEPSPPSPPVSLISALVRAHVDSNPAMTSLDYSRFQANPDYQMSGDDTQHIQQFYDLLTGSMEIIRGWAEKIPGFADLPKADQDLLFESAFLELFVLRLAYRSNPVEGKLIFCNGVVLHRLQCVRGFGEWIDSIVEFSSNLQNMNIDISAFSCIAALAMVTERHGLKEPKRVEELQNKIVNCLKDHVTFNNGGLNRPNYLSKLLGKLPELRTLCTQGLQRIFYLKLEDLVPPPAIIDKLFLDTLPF

Row | Compound | fraction of Nurr1 that binds the ligand covalently (Nurr1-LBD [2]) | interaction with Nurr1-LBD by chemical shift perturbations (Nurr1-LBD [3]) | transcriptional function of Nurr1 (Nurr1 [4]) | also measured
1 | Sc1ncnc2nc[nH]c12 [6-mercaptopurine] | – | – | – | activation of Nurr1 (Nurr1 [1]): activate Nurr1 through a region in the amino terminus lacking a LBD
2 | CCCCCC(O)/C=C/[C@H]1C=CC(=O)[C@@H]1CCCCCCC(=O)O (stereo partly shown) [PGA1, prostaglandin A1] | about 50% | direct physical interaction | – | –
3 | CCCCCC(O)/C=C/[C@H]1C=CC(=O)[C@@H]1C/C=C\CCCC(=O)O (stereo partly shown) [PGA2, prostaglandin A2] | about 50% | direct physical interaction | – | apoptosis in HL60 cells (HL60 cells): induce intrinsic apoptosis in HL60 cells; climbing ability (LRRK2 G2019S Drosophila; 50 μM in medium for 25 days from day 30 post-eclosion, assay on day 55, vehicle-treated mutant flies 9.7%): 36.4%; overall survival rate (LRRK2 G2019S Drosophila; PGA2 treated flies compared to vehicle treated mutant flies, 55 days post-eclosion): improvement to their overall survival rate
4 | CCN(CC)Cc1cc(Nc2ccnc3cc(Cl)ccc23)ccc1O [amodiaquine] | – | – | enhance the transcriptional function of Nurr1 | –
5 | CCN(CC)CCCC(C)Nc1ccnc2cc(Cl)ccc12 (stereo not shown) [chloroquine] | – | – | enhance the transcriptional function of Nurr1 | –
